In US20240376087A1, “PYRAZOLE AMIDE BASED COMPOUNDS AND USES AGAINST BREAST CANCER THEREOF” (COUNCIL OF SCIENTIFIC AND INDUSTRIAL RESEARCH AN INDIAN …, priority 2021, published 2024):
“Also recorded” adds a separate entry of the source.

Key:
MDA MB 231 cells [1] = assay: Glucose uptake study (2-NBDG, FACS); assay type: cell-based, human
Protocol: The effect of NIIST-AC-1 on the uptake of glucose was analyzed by flow cytometry using 2-NBDG. After incubation of the cells with different concentrations of NIIST-AC-1, the cell culture medium was replaced with medium containing fluorescent 2-NBDG and incubated for 30 minutes. Then the samples were analyzed using BD FACSAria II (BD Biosciences) at FITC range (excitation, 465 nm; emission 540-nm bandpass filter). The mean fluorescence intensities of different groups were analyzed by BD FACSDiva ver 6.1.3 software and corrected for autofluorescence from unlabeled cells.

EGFR = EGFR expression studies (immunofluorescence); assay type: cell-based, human; settings: fluorescent images
Protocol: The expression of EGFR after treatment with NIIST-AC-1 was evaluated using indirect immunofluorescence. The cells after treatment were fixed with paraformaldehyde and incubated with primary antibody overnight. After washing the primary antibody, the cells were treated with alexa fluor conjugated secondary antibody for visualization. The cells were counterstained with DAPI for nuclear staining and were observed under a fluorescent microscope (IX83 inverted microscope; Olympus Life Science, cell Sens Dimension ver 3.1 software).

MDA MB 231 cells [2] = assay: Wound healing (scratch wound) assay; assay type: cell-based, human; settings: 24 hr
Protocol: Wound healing assay was performed to understand the antimigration effects of NIIST-AC-1. The confluent monolayers of cells after making the scratch were treated with the test compounds at different concentrations for 24 hr. After the time interval, the wound closure by the migration of the cells was observed under the phase-contrast microscope (Nikon Eclipse TS100), and images were captured using NIS-Elements 3.21.00 imaging software at different time points (0, 24 h) at 4× magnification. The wound area was quantified using ImageJ 1.52p software.

MDA MB 231 cells [3] = assay: Morphological analysis by phase contrast and electron microscopy; assay type: cell-based, human; settings: MDA MB 231, phase contrast and SEM
Text: Morphological analysis of the cells treated with NIIST-AC-1 at different concentrations were monitored using phase contrast microscope Nikon EclipseTS100 (Nikon Instruments Inc., Melville, NY, USA, Magnification 20×) and SEM (Zeiss EVO 18 Special Edition) at ×2k and ×5k magnification.

[4] = system: histone deacetylase 1 (HDAC-1); assay: HDAC inhibition assay (colorimetric, cell lysates); assay type: biochemical, human; settings: enzyme assay, MDA MB 231 cell lysates
Protocol: The histone deacetylase inhibitory activity was measured in the cell lysates using the colorimetric assay kit where we have used the substrate Ac-Lys (Ac)-pNA and trichostatin A as the positive control. After the reaction, the absorbance was measured at 400 nm and the percentage inhibition was calculated by comparing with the deacetylated standard Ac-Lys-pNA.

MDA MB 231 cells [5] = assay: RNA sequencing whole transcriptome analysis and gene set enrichment; assay type: cell-based, human
Protocol: Toral RNA was isolated from the cells using RNeasy mini kit. 15 μg of cellular RNA was quality assessed (Bioanalyzer from Agilent Technologies) and used for mRNA library preparation. The mRNAs were fragmented, and the first strand of cDNA was synthesized from the cleaved RNA using random primers followed by second strand cDNA synthesis. The purified cDNA templates were enriched by PCR amplification to generate cDNA libraries. The developed libraries were presented to RNA sequencing facility and two rapid single-read 50 illumina HiSeq sequencing runs were performed. Raw reads from separate lanes of the same sample were merged for mapping. RNA sequencing was performed at Eurofins Genomics India Pvt. Ltd., Bengaluru 560048, Karnataka, India.
The output raw FASTQ files were analyzed using various tools of Galaxy platform to extract the differentially expressed genes as follows. The quality of the reads was analyzed using FastQC (Galaxy Version 0.72+galaxy1). The quality check reports were aggregated using MultiQC (Galaxy Version 1.9+galaxy1). Cutadapt (Galaxy Version 1.16.6) was used for adapter removal and filtering using threshold of minimum read length 20 and minimum quality (phred score) 20. Again, the quality was checked, and results were aggregated. The cleaned reads were mapped to a reference genome (Homo_sapiens.GRCh38.dna_sm.primary_assembly.fa.gz) and annotation file (Homo_sapiens.GRCh38.104.gtf.gz) using HISAT2 (Galaxy Version 2.1.0+galaxy7), a splice-aware alignment program. The output bam files are processed using StringTie (Galaxy Version 2.1.1) to assemble and quantitate RNA-Seq alignments into potential transcript. Later the Deseq2 (Galaxy Version 2.11.40.6+galaxy1) was used to determine normalized differentially expressed genes from the Stringtie output count tables. […] These differentially expressed genes were filtered using Filter (Galaxy Version 1.1.1) to extract significant ones by adding a filter of q-value<=0.05 and log 2 fold change >1.
The functional annotation (biological process, molecular function and pathways) was considered significant at False discovery rate (FDR B&H)<0.05. GSEA Preranked tool of standalone R program GSEA 4.1.0 was used to perform Gene Set Enrichment Analysis (GSEA) on ranked (log fold change based) list of total DEGs against CP: Canonical pathways (a pre-defined collection of 2922 gene sets) of Molecular Signatures Database (MSigDB). The enriched pathways with FDR qvalue less than 0.25 were considered significant.

MDA MB 231 cells [6] = assay: Measurement of intracellular reactive oxygen species (FACS); assay type: cell-based, human; settings: MDA MB 231, CM-H2DCFDA
Protocol: The upregulation of ROS upon treatment with NIIST-AC-1 was analyzed using the fluorescent probe CM-H2DCFDA (Sigma). After treatment, the cells were incubated DMEM containing CM-H2DCFDA at a final concentration of 5 μM at 37° C. for 30 min. The trypsinised cells were then suspended in PBA and analyzed using FACS (BD FACSAria II (BD Biosciences) at fluorescein isothiocyanate (FITC) range (excitation 495 nm, emission 529 nm bandpass filter). The mean fluorescence intensities of different groups were analyzed by BD FACSDiva ver 6.1.3 software and corrected for autofluorescence from unlabeled cells.

MDA MB 231 cells [7] = assay: Cell cycle analysis (PI flow cytometry, western blot); assay type: cell-based, human
Protocol: The distribution of cells in different phases of cell cycle was determined by flow cytometry after staining with propidium iodide. After treatment, the cells were harvested, ethanol fixed and stained with propidium iodide at 25° C. for 30 minutes. The cellular DNA content was measured with BD FACS Fortessa X-20 SORP according to detected signals in FL2 channel (excitation, 493 nm; emission, 636 nm) and data were analyzed with FloJo software, version 9. Approximately 10,000 cells were counted for each analysis, and the distribution of cells in each phase of the cell cycle was saved as histograms. Western blot analysis was done to study the expression profiles of various proteins involved in the cell cycle machinery.

[8] = whole transcriptome, q-value<=0.05 and log 2 fold change >1

COc1cc(-c2cc(C(=O)NCc3cc(C(F)(F)F)cc(C(F)(F)F)c3)[nH]n2)cc(OC)c1OC [I-8, N-(3,5-bis(trifluoromethyl)benzyl)-3-(3,4,5-trimethoxyphenyl)-1H-pyrazole-5-carboxamide]
glucose uptake (MDA MB 231 cells [1]): significant reduction in the uptake of glucose
EGFR expression (EGFR): reduction in EGFR expression
cell migration (MDA MB 231 cells [2]): cell migration inhibition was evident
morphological changes of the cells (MDA MB 231 cells [3]): significant morphological changes
HDAC inhibitory activity [4]: significant inhibition; also recorded: substantial histone deacetylase 1 (HDAC-1) inhibitory activity
downregulated signaling pathways (gene set enrichment analysis) (MDA MB 231 cells [5]; downregulated genes vs canonical gene sets): downregulated many signaling pathways that are critical in the cell death process
upregulated signaling pathways (gene set enrichment analysis) (MDA MB 231 cells [5]; upregulated genes vs canonical gene sets): upregulation of signaling pathways of ER stress induced apoptosis, UPR response, autophagy, HDAC acetylation
number of downregulated genes (MDA MB 231 cells [5]; [8]): 1642 genes
number of upregulated genes (MDA MB 231 cells [5]; [8]): 1337 genes
ROS generation (MDA MB 231 cells [6]): significant generation of ROS
cell cycle arrest (MDA MB 231 cells [7]; MDA MB 231, PI labelling, FACS): cell cycle arrest at S phase
cell cycle regulatory proteins cyclin B1, cyclin A2 and CDK (MDA MB 231 cells [7]; western blot): downregulated
